Test results: PubChem BioAssay AID1963833 (Molecular Pharmacology Branch, DTP, NCI, 2024)

Test system: 883617-216-R-J1-PDC complex spheroid viability
Test: Anticancer human tumor 883617-216-R-J1-PDC patient-derived bladder carcinoma cell line growth inhibition [POLQ]
Settings: for IC50: curve of first compound; for viability, T/C: stronger effect = lower value
Procedure, shortened: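 Patient-derived tumour cells were co-cultured with HUVEC and mesenchymal stem cells as multicellular spheroids at 37 °C. They were treated with POLQ inhibitors (novobiocin, ART-558, RP6685) alone or combined with other agents. Top concentrations were at or near clinical Cmax (otherwise 10 microM; SN-38 at 1 microM), decreasing in half-log steps.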
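Note: spheroids exposed to compounds for seven days before readout.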
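Throughout, for viability, T/C: 100% = DMSO vehicle control viability.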

SMILES: CNCc1ccc(-c2[nH]c3cc(F)cc4c3c2CCNC4=O)cc1 + COC1C(OC(N)=O)C(O)C(Oc2ccc3c(O)c(NC(=O)c4ccc(O)c(CC=C(C)C)c4)c(=O)oc3c2C)OC1(C)C
- IC50 (second compound 0.0316 µM): > 10 µM
- IC50 (second compound 0.1 µM): > 10 µM
- IC50 (second compound 0.316 µM): > 10 µM
- IC50 (second compound 1 µM): > 10 µM
- IC50 (second compound 3.16 µM): > 10 µM
- IC50 (second compound 10 µM): > 10 µM
- viability, T/C (second compound 0.0316 µM, first compound 0.0316 µM): 109%
- viability, T/C (second compound 0.0316 µM, first compound 0.1 µM): 104%
- viability, T/C (second compound 0.0316 µM, first compound 0.316 µM): 101%
- viability, T/C (second compound 0.0316 µM, first compound 1 µM): 97.9%
- viability, T/C (second compound 0.0316 µM, first compound 3.16 µM): 95.3%
- viability, T/C (second compound 0.0316 µM, first compound 10 µM): 80.7%
- viability, T/C (second compound 0.1 µM, first compound 0.0316 µM): 107%
- viability, T/C (second compound 0.1 µM, first compound 0.1 µM): 97.3%
- viability, T/C (second compound 0.1 µM, first compound 0.316 µM): 107%
- viability, T/C (second compound 0.1 µM, first compound 1 µM): 101%
- viability, T/C (second compound 0.1 µM, first compound 3.16 µM): 104%
- viability, T/C (second compound 0.1 µM, first compound 10 µM): 98.6%
- viability, T/C (second compound 0.316 µM, first compound 0.0316 µM): 116%
- viability, T/C (second compound 0.316 µM, first compound 0.1 µM): 98.9%
- viability, T/C (second compound 0.316 µM, first compound 0.316 µM): 104%
- viability, T/C (second compound 0.316 µM, first compound 1 µM): 106%
- viability, T/C (second compound 0.316 µM, first compound 3.16 µM): 103%
- viability, T/C (second compound 0.316 µM, first compound 10 µM): 94%
- viability, T/C (second compound 1 µM, first compound 0.0316 µM): 104%
- viability, T/C (second compound 1 µM, first compound 0.1 µM): 104%
- viability, T/C (second compound 1 µM, first compound 0.316 µM): 103%
- viability, T/C (second compound 1 µM, first compound 1 µM): 90.4%
- viability, T/C (second compound 1 µM, first compound 3.16 µM): 98%
- viability, T/C (second compound 1 µM, first compound 10 µM): 87.9%
- viability, T/C (second compound 3.16 µM, first compound 0.0316 µM): 103%
- viability, T/C (second compound 3.16 µM, first compound 0.1 µM): 92.8%
- viability, T/C (second compound 3.16 µM, first compound 0.316 µM): 102%
- viability, T/C (second compound 3.16 µM, first compound 1 µM): 87.2%
- viability, T/C (second compound 3.16 µM, first compound 3.16 µM): 107%
- viability, T/C (second compound 3.16 µM, first compound 10 µM): 92.9%
- viability, T/C (second compound 10 µM, first compound 0.0316 µM): 110%
- viability, T/C (second compound 10 µM, first compound 0.1 µM): 97.2%
- viability, T/C (second compound 10 µM, first compound 0.316 µM): 95.4%
- viability, T/C (second compound 10 µM, first compound 1 µM): 91.9%
- viability, T/C (second compound 10 µM, first compound 3.16 µM): 94.7%
- viability, T/C (second compound 10 µM, first compound 10 µM): 95.6%
